Assay results: PubChem BioAssay AID328 (DTP/NCI, 2004)
Several values for one entry are separate records, joined by “and”; a condition that tells them apart may be missing. Identical values can stand only once. Inconclusive results and toxic doses are left out. Rule for the calls: active = survival T/C of 150% or more; inactive = T/C below 125% in these data.

System: BDF1 mice, P388 leukemia ip, median survival T/C
Assay: NCI In Vivo Anticancer Drug Screen. Data for tumor model P388 Leukemia (intraperitoneal) in B6D2F1 (BDF1) mice
Details: endpoint: median survival time, higher = longer survival
Summary of the method: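 Steps: implant the tumour, treat one group with compound and another with vehicle, record survival, then divide treated by control.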

[1] = dose: 100.0 mg/kg/injection, schedule: Q04DX003 (ip), vehicle: Klucel (hydroxypropylcellulose) (HPC)
[2] = dose: 200.0 mg/kg/injection, schedule: Q04DX003 (ip), vehicle: Klucel (hydroxypropylcellulose) (HPC)
[3] = dose: 400.0 mg/kg/injection, schedule: Q04DX003 (ip), vehicle: Klucel (hydroxypropylcellulose) (HPC)
[4] = dose: 50.0 mg/kg/injection, schedule: Q04DX003 (ip), vehicle: saline with Tween-80
[5] = dose: 100.0 mg/kg/injection, schedule: Q04DX003 (ip), vehicle: saline with Tween-80
[6] = dose: 200.0 mg/kg/injection, schedule: Q04DX003 (ip), vehicle: saline with Tween-80
[7] = dose: 100.0 mg/kg/injection, schedule: Q01DX009 (ip), vehicle: saline with Tween-80
[8] = dose: 50.0 mg/kg/injection, schedule: Q01DX009 (ip), vehicle: saline with Tween-80
[9] = dose: 200.0 mg/kg/injection, schedule: Q01DX009 (ip), vehicle: saline with Tween-80
[10] = dose: 400.0 mg/kg/injection, schedule: Q04DX003 (ip), vehicle: saline with Tween-80
[11] = dose: 100.0 mg/kg/injection, schedule: Q01DX009 (ip), vehicle: saline
[12] = dose: 200.0 mg/kg/injection, schedule: Q01DX009 (ip), vehicle: saline
[13] = dose: 100.0 mg/kg/injection, schedule: Q01DX009 (ip), vehicle: Klucel (hydroxypropylcellulose) (HPC)
[14] = dose: 200.0 mg/kg/injection, schedule: Q01DX009 (ip), vehicle: Klucel (hydroxypropylcellulose) (HPC)
[15] = dose: 25.0 mg/kg/injection, schedule: Q01DX009 (ip), vehicle: saline
[16] = dose: 50.0 mg/kg/injection, schedule: Q01DX009 (ip), vehicle: saline
[17] = dose: 100.0 mg/kg/injection, schedule: Q04DX003 (ip), vehicle: saline
[18] = dose: 200.0 mg/kg/injection, schedule: Q04DX003 (ip), vehicle: saline

Measured: T/C

COC1CC(C)C(OC)C2=CC(=O)C=C(NC(=O)/C(C)=C/C=C\C(C)C(OC(N)=O)/C(C)=C\C(C)C1OC)C2=O (stereo unspecified)
active: dose: 5.0 mg/kg/injection, schedule: Q01DX009 (ip), vehicle: saline + alcohol 150 % of control | dose: 10.0 mg/kg/injection, schedule: Q01DX009 (ip), vehicle: saline + alcohol 171 % of control

CN(C)c1ccc(/C=C/c2ccc3ccccc3n2)c(F)c1
inactive: [1] 90 % of control | [2] 95 % of control | [3] 90 % of control

CCOC(=O)CCSc1ccccc1
inactive: dose: 25.0 mg/kg/injection, schedule: Q04DX003 (ip), vehicle: saline with Tween-80 98 % of control | [4] 95 % of control

CSCC(NC(=O)OCc1ccccc1)C(=O)O (stereo unspecified)
inactive: [4] 95 % of control | [5] 109 % of control | [6] 100 % of control

CCOc1ccc(Nc2ncnc3nc[nH]c23)cc1CN(CCCl)CCCl
active: dose: 0.29 mg/kg/injection, schedule: Q04DX003 (ip), vehicle: saline 196 % of control | dose: 0.88 mg/kg/injection, schedule: Q04DX003 (ip), vehicle: saline 165 % of control | dose: 1.0 mg/kg/injection, schedule: Q01DX009 (ip), vehicle: saline 154 % of control | dose: 1.0 mg/kg/injection, schedule: Q04DX003 (ip), vehicle: saline 205 % of control | dose: 2.0 mg/kg/injection, schedule: Q01DX009 (ip), vehicle: saline 172 % of control | dose: 2.2 mg/kg/injection, schedule: Q01DX009 (ip), vehicle: saline 163 % of control | dose: 3.0 mg/kg/injection, schedule: Q04DX003 (ip), vehicle: saline 155 % of control | dose: 3.3 mg/kg/injection, schedule: Q01DX009 (ip), vehicle: saline 154 % of control
inactive: dose: 0.13 mg/kg/injection, schedule: Q04DX003 (ip), vehicle: saline 106 % of control | dose: 0.2 mg/kg/injection, schedule: Q04DX003 (ip), vehicle: saline 117 % of control | dose: 0.25 mg/kg/injection, schedule: Q01DX009 (ip), vehicle: saline 118 % of control | dose: 0.3 mg/kg/injection, schedule: Q04DX003 (ip), vehicle: saline 121 % of control

C[C@]12CCC(=O)C=C1CC[C@@H]1[C@@H]2[C@@H](O)C[C@@]2(C)[C@H]1CC[C@]2(C)O
inactive: [7] 86 % of control

CC(=O)OC1=C2OC(=O)C3(C2C=CC=C1)C1C=CC=CC13 (stereo unspecified)
inactive: [8] 116 % of control | [7] 116 % of control | [9] 120 % of control

CCSc1ncnc2nc[nH]c12
inactive: [1] 104 % of control | [2] 109 % of control

Cc1nc2ccccc2nc1CI
inactive: dose: 2.9 mg/kg/injection, schedule: Q01DX009 (ip), vehicle: saline 110 % of control | dose: 4.5 mg/kg/injection, schedule: Q01DX009 (ip), vehicle: saline 120 % of control | dose: 10.0 mg/kg/injection, schedule: Q04DX003 (ip), vehicle: saline 115 % of control | dose: 17.0 mg/kg/injection, schedule: Q01DX009 (ip), vehicle: saline 100 % of control and 116 % of control | dose: 20.0 mg/kg/injection, schedule: Q04DX003 (ip), vehicle: saline 110 % of control | dose: 26.0 mg/kg/injection, schedule: Q01DX009 (ip), vehicle: saline 110 % of control | dose: 30.0 mg/kg/injection, schedule: Q01DX001 (ip), vehicle: Klucel (hydroxypropylcellulose) (HPC) 88 % of control | dose: 40.0 mg/kg/injection, schedule: Q01DX009 (ip), vehicle: saline 100 % of control and 116 % of control | dose: 40.0 mg/kg/injection, schedule: Q04DX003 (ip), vehicle: saline 110 % of control

COc1ccccc1NC(N)=O
inactive: [5] 105 % of control | [6] 105 % of control | [10] 100 % of control

CCOC(=O)C(=CC(CC)(C(=O)OCC)C(=O)OCC)C(=O)OCC
inactive: [11] 95 % of control | [12] 104 % of control | dose: 400.0 mg/kg/injection, schedule: Q01DX009 (ip), vehicle: saline 104 % of control

O=C1/C(=C/c2ccccc2O)SC(=S)N1CCCN1CCOCC1
inactive: [8] 95 % of control | [7] 100 % of control | [9] 90 % of control

O=C1NC(c2ccccc2Cl)Nc2ccccc21 (stereo unspecified)
inactive: [13] 100 % of control and 115 % of control | [14] 115 % of control and 120 % of control

C=C1C(=O)OC2CC3(C)CC(O)C(O)C(=C)C3CC12 (stereo unspecified)
inactive: [15] 104 % of control | [16] 104 % of control | [11] 104 % of control

CN1C(=O)C(C)(C)C(=O)C1(C)C
inactive: dose: 12.5 mg/kg/injection, schedule: Q01DX001 (ip), vehicle: saline 100 % of control | dose: 25.0 mg/kg/injection, schedule: Q01DX001 (ip), vehicle: saline 100 % of control | dose: 50.0 mg/kg/injection, schedule: Q01DX001 (ip), vehicle: saline 100 % of control

COc1ccc2c(c1)NC(c1ccccc1C(=O)O)c1cccn1-2 (stereo unspecified)
inactive: dose: 6.25 mg/kg/injection, schedule: Q01DX009 (ip), vehicle: saline with Tween-80 90 % of control | dose: 12.5 mg/kg/injection, schedule: Q01DX009 (ip), vehicle: saline with Tween-80 97 % of control | dose: 25.0 mg/kg/injection, schedule: Q01DX009 (ip), vehicle: saline with Tween-80 97 % of control

CC1(C)NC(=O)NC1=O
inactive: dose: 100.0 mg/kg/injection, schedule: Q01DX001 (ip), vehicle: saline with Tween-80 100 % of control | dose: 200.0 mg/kg/injection, schedule: Q01DX001 (ip), vehicle: saline with Tween-80 100 % of control | dose: 400.0 mg/kg/injection, schedule: Q01DX001 (ip), vehicle: saline with Tween-80 100 % of control

Cc1nc2c(=O)[nH]n(C)c2nc1C
inactive: [7] 97 % of control | [5] 95 % of control | [9] 97 % of control | [6] 94 % of control | [10] 99 % of control

O=C(O)/C=C/c1ccc(-c2cc(C(F)(F)F)cc(C(F)(F)F)c2)o1
inactive: [8] 108 % of control | [7] 90 % of control | [9] 106 % of control

C[N+](C)(C)CCCSC1=NCCN1
inactive: dose: 6.25 mg/kg/injection, schedule: Q01DX009 (ip), vehicle: saline 106 % of control | dose: 12.5 mg/kg/injection, schedule: Q01DX009 (ip), vehicle: saline 107 % of control | [15] 103 % of control

N#Cc1cnc2nc(N)nc(N)c2c1
inactive: [16] 104 % of control | [11] 107 % of control | [17] 108 % of control | [12] 117 % of control | [18] 116 % of control

O=C1CC(=O)N(c2ccccc2)C(=O)N1
inactive: [7] 94 % of control | [9] 88 % of control | dose: 400.0 mg/kg/injection, schedule: Q01DX009 (ip), vehicle: saline with Tween-80 106 % of control

O=C(O)/C(Cl)=C(Cl)\C=N\Nc1ccccc1
inactive: dose: 200.0 mg/kg/injection, schedule: Q04DX002 (ip), vehicle: saline with Tween-80 98 % of control

COC(=O)C1CCN1C(C)(C)C (stereo unspecified)
inactive: [17] 100 % of control | [18] 90 % of control | dose: 400.0 mg/kg/injection, schedule: Q04DX003 (ip), vehicle: saline 90 % of control

COc1ccc(C=O)c(O)c1
inactive: [13] 90 % of control | [1] 92 % of control | [14] 104 % of control | dose: 400.0 mg/kg/injection, schedule: Q01DX009 (ip), vehicle: Klucel (hydroxypropylcellulose) (HPC) 90 % of control | [3] 96 % of control

Cc1ccc(C(SCC(N)C(=O)O)(c2ccccc2)c2ccccc2)cc1 (stereo unspecified)
inactive: dose: 300.0 mg/kg/injection, schedule: Q04DX003 (ip), vehicle: saline with Tween-80 95 % of control
active: dose: 132.0 mg/kg/injection, schedule: Q04DX003 (ip), vehicle: saline with Tween-80 260 % of control | [6] 260 % of control
